Data taken from paper PMC10017155 (Aging and Disease, 2023).
Entries after “also recorded” stand apart in the source; their conditions may differ. Peptide text beside a SMILES is read from it.

Assays:
immobilized Aβ42 = biological target: T1, immobilized Aβ42 (Homo sapiens, UniProt P05067); experiment: SPR analysis of HAEE binding to immobilized Aβ42
T1 construct: Aβ42 ([…] […]); purchased Biopeptide Co., LLC (San Diego, CA, USA); host or cells: chemical synthesis
Experimental: All SPR measurements were carried out at 25°C using an optical biosensor Biacore 8K (GE Healthcare, USA) with CM4 optical chip. Covalent immobilization of the peptide ligands on the surface of the optical chip was performed using the sulfhydryl group of the C-terminal tetragly-cylcysteine tag. Briefly, carboxyl groups on the chip surface were activated by serial injections of mixture of 0.4 M EDC/0.1 M NHS at a flow rate of 10 μL/min for 2 min and a solution of 80 mM PDEA in 100 mM borate buffer (pH 8.5) for 4 min. Solutions of 2 μM peptides in the immobilization buffer (10 mM acetate buffer, pH 4.5) were injected for 2 min at a flow rate of 10 μL/min (three repeats). Unreacted activated groups on the chip were blocked by further injection of a solution containing 50 mM cysteine, 1 M NaCl, 0.1 M sodium acetate (pH 4.3) for 4 min at a flow rate of 5 μL/min. Possible nonspecific analyte binding to the chip surface was evaluated using a free (control) channel of the biosensor exposed to the same treatments as the working channel except peptides. SPR signals were recorded in real time in resonance units (RU; 1 RU corresponds to […]) and were presented in the form of sensorgrams showing time-dependent signal changes. […] The obtained sensorgrams were analyzed with BIAevaluation v.4.1 software.

C. elegans CL2120 [1] = experiment: Paralysis assay in C. elegans CL2120; assay type: in vivo; details: for Mean fraction of paralyzed: Aβ42 or isoD7-Aβ42 40 μM, HAEE 4 mM, 25°C, mean ± SD of 3 experiments
Experimental: (§1) C. elegans CL2120 (dvIs14 [(pCL12) unc-54::beta 1-42 +(pCL26) mtl-2::GFP]) and C. elegans CL2122 (dvIs15 [(pPD30.38) unc-54(vector) + (pCL26) mtl-2::GFP]) strains were obtained from the Caenorhabditis Genetics Center. The worms were handled according to standard methods without FUDR [18]. E. coli OP50 bacteria were grown overnight in Luria-Bertani broth and 50µl were spread atop NGM or NGMZn plates. NGMZn has 20μM ZnSO4. Seeded plates were incubated at 30°C for ~16 hours and then for 1-2 hours at 15 or 25°C before worms were transferred. Lifespan and paralysis experiments (see below) were performed at 25°C for enhanced expression of Aβ. This temperature is standard when studying the effects of Aβ on C. elegans CL2120 strain [19].
Then, nematodes were transferred to Petri plates with NGM or NGMZn and OP-50, placed in a temperature-controlled incubator at 25°C. On the next day, worms were transferred onto similar media with a bacterial substrate and paralyzed nematodes were counted at equal time intervals. […] For the paralysis experiments, we chose the days where we could clearly distinguish between paralysis and mortality. This conformed to the third and fourth days of their adult life. While at least three repeated trials were conducted, each experiment was performed using at least 100 worms. Details regarding repeated experiments and amounts of animals used for experiments are summarized in Supplementary Table 2. Mean fraction of paralyzed worms was compared between groups with two-way ANOVA, accounting for age and treatment. Post-hoc analysis was performed with the Tukey test. Statistical analysis was performed with GraphPad Prism 9.1 software.

C. elegans CL2122 = experiment: Lifespan analysis, C. elegans CL2122 (transgenic control); assay type: in vivo; details: for Increase/decrease in lifespan: vs control of same repeat
Experimental: as §1
(§2) Nematodes were purified from unwanted microflora by the alkaline hypochlorite method, grown to the L4 stage at 15°C on NGM plates with bacterial lawn. […] Further, all contents were transferred to Petri plates with NGM or NGMZn with OP50 and placed in a temperature-controlled incubator at 25°C. Next day, worms were transferred onto similar media with a bacterial substrate and the lifespan was determined at 25°C (Supplementary Tables 3, 4).
(§3) Lifespans were monitored at 25°C as described previously. All experiments were repeated at least three times and ≈130 worms were used for each experiment. Details regarding repeated experiments and amounts of animals used for experiments are summarized in Supplementary Tables 3, 4. In all cases, stage L4 worms were used at t = 0 for lifespan analyses and worms were transferred every other day to new agar plates. […] Escaped animals or animals with internal hatching were not included in lifespan calculation. Data was analyzed and Boltzmann sigmoid survival curves generated using the SciDAVis statistical analysis software package. Mean lifespans were compared in Microsoft Excel using the Student t test, applying one-tailed distribution and two-sample equal variance. All lifespan plots represent the composites of all independent experiments tabulated in Supplementary Tables 3, 4. Mean percentage change ±SD of lifespan after treatment, relative to untreated control are indicated in each graph in the same color as the curve.

C. elegans CL2120 [2] = experiment: Lifespan analysis, C. elegans CL2120; assay type: in vivo; details: for Mean survival: Aβ42 or isoD7-Aβ42 40 μM, HAEE 4 mM; for Increase/decrease in lifespan: vs control of same repeat
Experimental: as §1, §2, §3

[3] = CL2122, NGM (no Zn), replicate 1
[4] = CL2122, NGM (no Zn), replicate 2
[5] = CL2122, NGM (no Zn), replicate 3
[6] = CL2120, NGM (no Zn), replicate 1
[7] = CL2120, NGM (no Zn), replicate 2
[8] = CL2120, NGM (no Zn), replicate 3

T1 sequence (P05067 672-713): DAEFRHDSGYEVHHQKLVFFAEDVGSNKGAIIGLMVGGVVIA

CC(=O)N[C@@H](Cc1c[nH]cn1)C(=O)N[C@@H](C)C(=O)N[C@@H](CCC(=O)O)C(=O)N[C@@H](CCC(=O)O)C(N)=O [HAEE, Ac-HAEE-NH2] (Ac-HAEE-NH2) was tested, and the Kd (immobilized Aβ42) was 4.1 ± 0.3 µM, the “Interaction with immobilized Aβ42 in the absence of Zn2+” value (immobilized Aβ42; SPR, 10 mM HEPES, pH 6.8, no Zn2+, 25°C) was “no interaction” and the “Mean fraction of paralyzed” value (C. elegans CL2120 [1]; A3 (3 days old), NGM (no Zn)) was 5.5±0.35%. It also gave a Fraction of paralyzed (C. elegans CL2120 [1]; A3 (3 days old), NGM (no Zn), replicate 1) of 5.5%, a Fraction of paralyzed (C. elegans CL2120 [1]; A3 (3 days old), NGM (no Zn), replicate 2) of 5.2% and a Fraction of paralyzed (C. elegans CL2120 [1]; A3 (3 days old), NGM (no Zn), replicate 3) of 5.9%. The “Mean fraction of paralyzed” value (C. elegans CL2120 [1]; A4 (4 days old), NGM (no Zn)) was 10.5±0.55%, the Fraction of paralyzed (C. elegans CL2120 [1]; A4 (4 days old), NGM (no Zn), replicate 1) was 9.9% and the Fraction of paralyzed (C. elegans CL2120 [1]; A4 (4 days old), NGM (no Zn), replicate 2) was 10.9%. For the same molecule, the “Mean fraction of paralyzed” value (C. elegans CL2120 [1]; A4 (4 days old), NGMZn (ZnSO4 20 μM)) was 9.5±0.65%, the Fraction of paralyzed (C. elegans CL2120 [1]; A4 (4 days old), NGMZn, replicate 1) was 10.2% and the Fraction of paralyzed (C. elegans CL2120 [1]; A4 (4 days old), NGMZn, replicate 2) was 9.5%. For the same molecule, the Fraction of paralyzed (C. elegans CL2120 [1]; A4 (4 days old), NGMZn, replicate 3) was 8.9%, the “Effect of HAEE on isoD7-Aβ42/Zn2+-accelerated paralysis” value (C. elegans CL2120 [1]; HAEE 4 mM + isoD7-Aβ42 40 μM, NGMZn) was “suppresses this effect” and the “Effect of HAEE itself on lifespan” value (C. elegans CL2122; CL2122, HAEE 4 mM) was “no effect”. For the same molecule, the Mean survival (C. elegans CL2122; CL2122, NGM (no Zn), Aβ42 or isoD7-Aβ42 40 μM, HAEE 4 mM, 25°C, mean ± SD of 3 experiments) was 9.07 ± 0.25 days, the 50% survival (C. elegans CL2122; [3]) was 8.8 days and the 50% survival (C. elegans CL2122; [4]) was 9.3 days. For the same molecule, the 50% survival (C. elegans CL2122; [5]) was 9.1 days, the “Mean increase/decrease in lifespan” value (C. elegans CL2122; CL2122, NGM (no Zn), vs control NGM, mean ± SD of 3 experiments) was 0.03±1.89% and the Increase/decrease in lifespan (C. elegans CL2122; [3]) was 1.15%. For the same molecule, the Increase/decrease in lifespan (C. elegans CL2122; [4]) was 1.09%, the Increase/decrease in lifespan (C. elegans CL2122; [5]) was -2.15% and the “Effect on lifespan” value (C. elegans CL2122; CL2122, NGM, without Zn2+, 25°C) was “do not affect”. It also gave a 50% survival (C. elegans CL2122; CL2122, NGMZn, replicate 1) of 8.8 days, a 50% survival (C. elegans CL2122; CL2122, NGMZn, replicate 2) of 9.1 days and a 50% survival (C. elegans CL2122; CL2122, NGMZn, replicate 3) of 8.9 days. For the same molecule, the “Mean increase/decrease in lifespan” value (C. elegans CL2122; CL2122, NGMZn, vs control NGMZn, mean ± SD of 3 experiments) was -1.05 ±2.87%, the Increase/decrease in lifespan (C. elegans CL2122; CL2122, NGMZn, replicate 1) was 1.15% and the Increase/decrease in lifespan (C. elegans CL2122; CL2122, NGMZn, replicate 2) was 0%. The Increase/decrease in lifespan (C. elegans CL2122; CL2122, NGMZn, replicate 3) was -4.3%, the “Effect of HAEE itself on lifespan” value (C. elegans CL2120 [2]; CL2120, HAEE 4 mM) was “no effect” and the Mean survival (C. elegans CL2120 [2]; CL2120, NGM (no Zn), 25°C, mean ± SD of 3 experiments) was 8.83 ± 0.31 days. For the same molecule, the 50% survival (C. elegans CL2120 [2]; [6]) was 8.5 days, the 50% survival (C. elegans CL2120 [2]; [7]) was 8.9 days and the 50% survival (C. elegans CL2120 [2]; [8]) was 9.1 days. For the same molecule, the “Mean increase/decrease in lifespan” value (C. elegans CL2120 [2]; CL2120, NGM (no Zn), vs control NGM, mean ± SD of 3 experiments) was 1.53±0.63%, the Increase/decrease in lifespan (C. elegans CL2120 [2]; [6]) was 1.19% and the Increase/decrease in lifespan (C. elegans CL2120 [2]; [7]) was 1.14%. For the same molecule, the Increase/decrease in lifespan (C. elegans CL2120 [2]; [8]) was 2.25%, the “Effect on lifespan” value (C. elegans CL2120 [2]; CL2120, NGM, without Zn2+, 25°C) was “do not affect” and the Mean survival (C. elegans CL2120 [2]; CL2120, NGMZn (ZnSO4 20 μM), 25°C, mean ± SD of 3 (isoD7-Aβ42: 5) experiments) was 9.2 ± 0.7 days. For the same molecule, the “Effect of HAEE on lifespan shortened by isoD7-Aβ42 + Zn2+” value (C. elegans CL2120 [2]; CL2120, NGMZn, HAEE 4 mM + isoD7-Aβ42 40 μM) was “removes the negative effect; also recorded: completely restored the shortened lifespan”, the 50% survival (C. elegans CL2120 [2]; CL2120, NGMZn, replicate 1) was 9.3 days and the 50% survival (C. elegans CL2120 [2]; CL2120, NGMZn, replicate 2) was 9 days. For the same molecule, the 50% survival (C. elegans CL2120 [2]; CL2120, NGMZn, replicate 3) was 9.3 days, the “Mean increase/decrease in lifespan” value (C. elegans CL2120 [2]; CL2120, NGMZn, vs control NGMZn, mean ± SD of 3 (isoD7-Aβ42: 5) experiments) was 1.85 ±0.66% and the Increase/decrease in lifespan (C. elegans CL2120 [2]; CL2120, NGMZn, replicate 1) was 1.09%. It also gave an Increase/decrease in lifespan (C. elegans CL2120 [2]; CL2120, NGMZn, replicate 2) of 2.27% and an Increase/decrease in lifespan (C. elegans CL2120 [2]; CL2120, NGMZn, replicate 3) of 2.20%.
